Measurements taken from patent publication US9695155B2, “Herbicidal substituted pyrimidinyloxy benzene compounds” (E. I. DU PONT DE NEMOURS AND COMPANY, priority 2013, dated 2017).

What was measured:
fall panicum = experiment: Test E preemergence; type: in vivo, Panicum dichotomiflorum; details: for Panicum, Fall plant response rating: scale 0 to 100 (0 no effect, 100 complete control)
In short: (§1)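 Test chemicals formulated in a non-phytotoxic solvent mixture containing a surfactant were applied preemergence to seeds in silt loam soil or postemergence to plants at the 1- to 4-leaf stage in potting mix. After 14 to 21 days in a greenhouse, injury was visually rated against controls on a 0-100 scale (0 = no effect, 100 = complete control).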

goosegrass = experiment: Test E preemergence; type: in vivo, Eleusine indica; details: for Goosegrass plant response rating: scale 0 to 100 (0 no effect, 100 complete control)
In short: as §1

palmer pigweed = experiment: Test E preemergence; type: in vivo, Amaranthus palmeri; details: for Pigweed, Palmer plant response rating: scale 0 to 100 (0 no effect, 100 complete control)
In short: as §1

lambsquarters = experiment: Test E preemergence; type: in vivo, Chenopodium album; details: for Lambsquarters plant response rating: scale 0 to 100 (0 no effect, 100 complete control)
In short: as §1

morningglory = experiment: Test E preemergence; type: in vivo, Ipomoea coccinea; details: for Morningglory plant response rating: scale 0 to 100 (0 no effect, 100 complete control)
In short: as §1

surinam grass = experiment: Test E preemergence; type: in vivo, Brachiaria decumbens; details: for Surinam Grass plant response rating: scale 0 to 100 (0 no effect, 100 complete control)
In short: as §1

giant foxtail = experiment: Test E preemergence; type: in vivo, Setaria faberii; details: for Foxtail, Giant plant response rating: scale 0 to 100 (0 no effect, 100 complete control)
In short: as §1

ducksalad = experiment: Test C flooded paddy test; type: in vivo, Heteranthera limosa; details: Flood, scale 0 to 100 (0 no effect, 100 complete control), 13 to 15 days
In short: (§2)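 Under a constant 3 cm flood, test compounds went directly into the paddy water. Following 13 to 15 days of greenhouse growth, treated species and controls were compared by eye.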

Italian ryegrass = experiment: Test E preemergence; type: in vivo, Lolium multiflorum; details: for Ryegrass, Italian plant response rating: scale 0 to 100 (0 no effect, 100 complete control)
In short: as §1

soybean = experiment: Test E preemergence; type: in vivo, Glycine max; details: for Soybean plant response rating: scale 0 to 100 (0 no effect, 100 complete control)
In short: as §1

barnyardgrass = experiment: Test C flooded paddy test; type: in vivo, Echinochloa crus-galli; details: Flood, scale 0 to 100 (0 no effect, 100 complete control), 13 to 15 days
In short: as §2

waterhemp = experiment: Test E preemergence; type: in vivo, Amaranthus rudis; details: for Waterhemp plant response rating: scale 0 to 100 (0 no effect, 100 complete control)
In short: as §1

kochia = experiment: Test A postemergence; type: in vivo, Kochia scoparia; details: 0 to 100 scale where 0 is no effect and 100 is complete control
In short: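 Compounds in non-phytotoxic solvent with surfactant applied as soil spray preemergence, or postemergence to plants 2-10 cm at one- to two-leaf stage, in loam/sand. After approximately 10 days in greenhouse, injury rated visually versus untreated controls, 0 (no effect) to 100 (complete control).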

sandbur = experiment: Test E preemergence; type: in vivo, Cenchrus echinatus; details: for Sandbur plant response rating: scale 0 to 100 (0 no effect, 100 complete control)
In short: as §1

corn = experiment: Test E preemergence; type: in vivo, Zea mays; details: for Corn plant response rating: scale 0 to 100 (0 no effect, 100 complete control)
In short: as §1

[1] = 125 g ai/ha, scale 0 to 100, 0 no effect, 100 complete control
[2] = 250 g ai/ha, scale 0 to 100, 0 no effect, 100 complete control
[3] = 8 g ai/ha, scale 0 to 100, 0 is no effect, 100 is complete control

## CCOc1cnn(-c2c(C#N)cccc2Oc2ncc(F)cn2)c1 [Compound 89]
Fall panicum; 31 g ai/ha
  Panicum, Fall plant response rating: 0
Fall panicum; 62 g ai/ha
  Panicum, Fall plant response rating: 65
Fall panicum; [1]
  Plant response rating, Panicum, Fall: 100
Fall panicum; [2]
  Plant response rating, Panicum, Fall: 100
goosegrass; 31 g ai/ha
  Goosegrass plant response rating: 0
goosegrass; 62 g ai/ha
  Goosegrass plant response rating: 0
goosegrass; [1]
  Plant response rating, Goosegrass: 5
goosegrass; [2]
  Plant response rating, Goosegrass: 50
Palmer pigweed; 31 g ai/ha
  Pigweed, Palmer plant response rating: 0
Palmer pigweed; 62 g ai/ha
  Pigweed, Palmer plant response rating: 0
Palmer pigweed; [1]
  Plant response rating, Pigweed, Palmer: 40
Palmer pigweed; [2]
  Plant response rating, Pigweed, Palmer: 100
lambsquarters; 31 g ai/ha
  Lambsquarters plant response rating: 20
lambsquarters; 62 g ai/ha
  Lambsquarters plant response rating: 5
lambsquarters; [1]
  Plant response rating, Lambsquarters: 95
lambsquarters; [2]
  Plant response rating, Lambsquarters: 100
morningglory; 31 g ai/ha
  Morningglory plant response rating: 30
morningglory; 62 g ai/ha
  Morningglory plant response rating: 65
morningglory; [1]
  Plant response rating, Morningglory: 75
morningglory; [2]
  Plant response rating, Morningglory: 100
Surinam grass; 31 g ai/ha
  Surinam Grass plant response rating: 0
Surinam grass; 62 g ai/ha
  Surinam Grass plant response rating: 0
Surinam grass; [1]
  Plant response rating, Surinam Grass: 10
Surinam grass; [2]
  Plant response rating, Surinam Grass: 75
Giant foxtail; 31 g ai/ha
  Foxtail, Giant plant response rating: 0
Giant foxtail; 62 g ai/ha
  Foxtail, Giant plant response rating: 20
Giant foxtail; [1]
  Plant response rating, Foxtail, Giant: 65
Giant foxtail; [2]
  Plant response rating, Foxtail, Giant: 100
ducksalad; 62 g ai/ha
  Plant response rating, Ducksalad: 0
ducksalad; 125 g ai/ha
  Plant response rating, Ducksalad: 65
ducksalad; 250 g ai/ha
  Plant response rating, Ducksalad: 80
Italian ryegrass; 31 g ai/ha
  Ryegrass, Italian plant response rating: 0
Italian ryegrass; 62 g ai/ha
  Ryegrass, Italian plant response rating: 0
Italian ryegrass; [1]
  Plant response rating, Ryegrass, Italian: 0
Italian ryegrass; [2]
  Plant response rating, Ryegrass, Italian: 0
soybean; 62 g ai/ha
  Soybean plant response rating: 30
soybean; [1]
  Plant response rating, Soybean: 60
soybean; [2]
  Plant response rating, Soybean: 80
barnyardgrass; 62 g ai/ha
  Plant response rating, Barnyardgrass: 0
barnyardgrass; 125 g ai/ha
  Plant response rating, Barnyardgrass: 15
barnyardgrass; 250 g ai/ha
  Plant response rating, Barnyardgrass: 20
waterhemp; 31 g ai/ha
  Waterhemp plant response rating: 0
waterhemp; 62 g ai/ha
  Waterhemp plant response rating: 70
waterhemp; [1]
  Plant response rating, Waterhemp: 80
waterhemp; [2]
  Plant response rating, Waterhemp: 100
kochia; 125 g ai/ha
  Plant response rating, Kochia: 80
kochia; 500 g ai/ha
  Plant response rating, Kochia: 90
sandbur; 31 g ai/ha
  Sandbur plant response rating: 0
sandbur; 62 g ai/ha
  Sandbur plant response rating: 10
sandbur; [1]
  Plant response rating, Sandbur: 10
sandbur; [2]
  Plant response rating, Sandbur: 20
corn; 31 g ai/ha
  Corn plant response rating: 0
corn; 62 g ai/ha
  Corn plant response rating: 0
corn; [1]
  Plant response rating, Corn: 30
corn; [2]
  Plant response rating, Corn: 70

## Fc1cccc(Oc2ncc(Cl)cn2)c1-n1cc(I)cn1 [Compound 179]
Fall panicum; [3]
  Plant response rating, Panicum, Fall: 0
Fall panicum; 62 g ai/ha
  Panicum, Fall plant response rating: 75
Fall panicum; [1]
  Plant response rating, Panicum, Fall: 98
goosegrass; [3]
  Plant response rating, Goosegrass: 0
goosegrass; 62 g ai/ha
  Goosegrass plant response rating: 35
goosegrass; [1]
  Plant response rating, Goosegrass: 70
Palmer pigweed; [3]
  Plant response rating, Pigweed, Palmer: 0
Palmer pigweed; 62 g ai/ha
  Pigweed, Palmer plant response rating: 100
Palmer pigweed; [1]
  Plant response rating, Pigweed, Palmer: 100
lambsquarters; [3]
  Plant response rating, Lambsquarters: 0
lambsquarters; 62 g ai/ha
  Lambsquarters plant response rating: 95
lambsquarters; [1]
  Plant response rating, Lambsquarters: 100
morningglory; [3]
  Plant response rating, Morningglory: 0
morningglory; 62 g ai/ha
  Morningglory plant response rating: 10
morningglory; [1]
  Plant response rating, Morningglory: 30
Surinam grass; [3]
  Plant response rating, Surinam Grass: 0
Surinam grass; 62 g ai/ha
  Surinam Grass plant response rating: 0
Surinam grass; [1]
  Plant response rating, Surinam Grass: 0
Giant foxtail; [3]
  Plant response rating, Foxtail, Giant: 0
Giant foxtail; 16 g ai/ha
  Foxtail, Giant plant response rating: 0
Giant foxtail; 62 g ai/ha
  Foxtail, Giant plant response rating: 65
Giant foxtail; [1]
  Plant response rating, Foxtail, Giant: 100
ducksalad; 31 g ai/ha
  Plant response rating, Ducksalad: 20
ducksalad; 62 g ai/ha
  Plant response rating, Ducksalad: 60
ducksalad; 125 g ai/ha
  Plant response rating, Ducksalad: 85
ducksalad; 250 g ai/ha
  Plant response rating, Ducksalad: 95
Italian ryegrass; [3]
  Plant response rating, Ryegrass, Italian: 0
Italian ryegrass; 62 g ai/ha
  Ryegrass, Italian plant response rating: 15
Italian ryegrass; [1]
  Plant response rating, Ryegrass, Italian: 15
soybean; [3]
  Plant response rating, Soybean: 0
soybean; 62 g ai/ha
  Soybean plant response rating: 25
soybean; [1]
  Plant response rating, Soybean: 40
barnyardgrass; 31 g ai/ha
  Plant response rating, Barnyardgrass: 0
barnyardgrass; 62 g ai/ha
  Plant response rating, Barnyardgrass: 0
barnyardgrass; 125 g ai/ha
  Plant response rating, Barnyardgrass: 0
barnyardgrass; 250 g ai/ha
  Plant response rating, Barnyardgrass: 0
waterhemp; [3]
  Plant response rating, Waterhemp: 0
waterhemp; 62 g ai/ha
  Waterhemp plant response rating: 90
waterhemp; [1]
  Plant response rating, Waterhemp: 98
sandbur; [3]
  Plant response rating, Sandbur: 0
sandbur; 62 g ai/ha
  Sandbur plant response rating: 15
sandbur; [1]
  Plant response rating, Sandbur: 15
corn; [3]
  Plant response rating, Corn: 0
corn; 16 g ai/ha
  Corn plant response rating: 0
corn; 62 g ai/ha
  Corn plant response rating: 0
corn; [1]
  Plant response rating, Corn: 0

## FC(F)c1cccc(Oc2ncc(Cl)cn2)c1-n1cc(Br)cn1 [Compound 194, 2-[2-(4-bromo-1H-pyrazol-1-yl)-3-(difluoromethyl)phenoxy]-5-chloropyrimidine]
Fall panicum; 31 g ai/ha
  Panicum, Fall plant response rating: 80
Fall panicum; 62 g ai/ha
  Panicum, Fall plant response rating: 100
goosegrass; 31 g ai/ha
  Goosegrass plant response rating: 40
goosegrass; 62 g ai/ha
  Goosegrass plant response rating: 75
Palmer pigweed; 31 g ai/ha
  Pigweed, Palmer plant response rating: 98
Palmer pigweed; 62 g ai/ha
  Pigweed, Palmer plant response rating: 100
lambsquarters; 31 g ai/ha
  Lambsquarters plant response rating: 80
lambsquarters; 62 g ai/ha
  Lambsquarters plant response rating: 100
morningglory; 31 g ai/ha
  Morningglory plant response rating: 0
morningglory; 62 g ai/ha
  Morningglory plant response rating: 0
Surinam grass; 31 g ai/ha
  Surinam Grass plant response rating: 0
Surinam grass; 62 g ai/ha
  Surinam Grass plant response rating: 0
Giant foxtail; 31 g ai/ha
  Foxtail, Giant plant response rating: 25
Giant foxtail; 62 g ai/ha
  Foxtail, Giant plant response rating: 75
ducksalad; 31 g ai/ha
  Plant response rating, Ducksalad: 65
ducksalad; 62 g ai/ha
  Plant response rating, Ducksalad: 80
ducksalad; 125 g ai/ha
  Plant response rating, Ducksalad: 90
ducksalad; 250 g ai/ha
  Plant response rating, Ducksalad: 100
Italian ryegrass; 31 g ai/ha
  Ryegrass, Italian plant response rating: 0
Italian ryegrass; 62 g ai/ha
  Ryegrass, Italian plant response rating: 0
soybean; 31 g ai/ha
  Soybean plant response rating: 0
soybean; 62 g ai/ha
  Soybean plant response rating: 20
barnyardgrass; 31 g ai/ha
  Plant response rating, Barnyardgrass: 0
barnyardgrass; 62 g ai/ha
  Plant response rating, Barnyardgrass: 0
barnyardgrass; 125 g ai/ha
  Plant response rating, Barnyardgrass: 0
barnyardgrass; 250 g ai/ha
  Plant response rating, Barnyardgrass: 0
waterhemp; 31 g ai/ha
  Waterhemp plant response rating: 98
waterhemp; 62 g ai/ha
  Waterhemp plant response rating: 100
sandbur; 31 g ai/ha
  Sandbur plant response rating: 20
sandbur; 62 g ai/ha
  Sandbur plant response rating: 20
corn; 31 g ai/ha
  Corn plant response rating: 0
corn; 62 g ai/ha
  Corn plant response rating: 0
